Assay results reported in US7811760B2, “Vector and method for detecting the change in transcription amount” (priority 2006, dated 2010).

Target: T1, aryl hydrocarbon receptor (Rattus norvegicus, UniProt P41738, Q794H)
T1 construct: The SD-line rat AhR gene-coding region was amplified from the reverse-transcribed sample by means of PCR; V5-His (C-terminal tag of vector pcDNA4/V5-His B); expressed in transfected cells; host or cells: mouse neuroblastoma Neuro2a, transient transfection with LIPOFECTAMINE 2000
T1 sequence (P41738 10-853 Q794H): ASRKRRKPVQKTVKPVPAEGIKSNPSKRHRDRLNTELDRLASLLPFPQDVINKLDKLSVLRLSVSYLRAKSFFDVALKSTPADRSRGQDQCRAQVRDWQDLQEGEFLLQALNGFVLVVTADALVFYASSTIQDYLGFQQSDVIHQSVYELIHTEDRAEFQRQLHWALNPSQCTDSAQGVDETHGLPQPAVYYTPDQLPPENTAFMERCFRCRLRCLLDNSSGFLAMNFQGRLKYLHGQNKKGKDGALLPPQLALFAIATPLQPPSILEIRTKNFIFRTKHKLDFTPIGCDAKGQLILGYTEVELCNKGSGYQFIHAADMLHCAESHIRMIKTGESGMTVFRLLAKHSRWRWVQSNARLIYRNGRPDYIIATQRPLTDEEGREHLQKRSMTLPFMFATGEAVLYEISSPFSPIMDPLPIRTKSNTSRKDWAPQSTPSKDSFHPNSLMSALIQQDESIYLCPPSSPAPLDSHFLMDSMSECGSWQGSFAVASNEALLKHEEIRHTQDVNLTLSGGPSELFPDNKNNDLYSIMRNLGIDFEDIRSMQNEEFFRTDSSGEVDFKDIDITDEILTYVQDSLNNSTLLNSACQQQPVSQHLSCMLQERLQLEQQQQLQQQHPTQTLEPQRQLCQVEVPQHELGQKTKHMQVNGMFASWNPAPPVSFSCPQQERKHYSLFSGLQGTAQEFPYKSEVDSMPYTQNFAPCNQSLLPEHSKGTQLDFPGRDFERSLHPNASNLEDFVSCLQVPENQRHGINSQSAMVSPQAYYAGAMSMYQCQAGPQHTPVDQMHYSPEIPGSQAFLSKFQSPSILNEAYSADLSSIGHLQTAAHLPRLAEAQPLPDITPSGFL
Assay: Reporter gene (luciferase) assay in Neuro2a cells carrying PGV-THp25 (2.5 kbp TH transcriptional regulatory region) and pcDNA4-rAhR
Type: cell-based, SD-line rat
Conditions: PGV-pTH25-introduced Neuro2a; for expression amount of the reporter gene (increase versus unexposed): 30 hours
Excerpt: In this Example, the PGV-THp25 prepared in Example 2 was used. Neuro2a was used as the cell.
Two kinds of vectors, pcDNA4-rAhR (Example 1) and pcDNA4/V5-His/lacZ (Invitrogen), were introduced into Neuro2a, together with PGV-THp25. pcDNA4-rAhR was introduced for constitutive expression of the SD-line rat AhR gene (SEQ ID No: 10) in the cell, and pcDNA4/V5-His/lacZ was introduced for normalization of the vector transfection efficiency.
The vectors were introduced into the cell by using LIPOFECTAMINE 2000 (Invitrogen). The cell was cultured on a 24-well plate, and the operation was performed according to the manual of Invitrogen. A total of 0.8 μg of vectors (0.4 μg of PGV-THp25, 0.2 μg of pcDNA4-rAhR, and 0.2 μg of pcDNA4/V5-His/lacZ) suspended in 50 μl of OPTI-MEM medium and 2 μl of LIPOFECTAMINE 2000 suspended in 50 μl of OPTI-MEM medium were mixed, and incubated at room temperature for 20 minutes to form nucleic acid/LIPOFECTAMINE 2000 complex. The obtained suspension containing the complex was added to Neuro2a cell culture, which has been previously cultured overnight in 500 μl of DF1:1 medium (containing 10% fetal calf serum) (0.8×10^5 cells were seeded on previous day), to allow incorporation of the vectors into the cell. The cell was cultured additionally for 24 hours after the transfection, for the purpose of improvement in vector incorporation efficiency and expression of the proteins derived from the introduced vectors.
As the test substance, a solution of dioxin (2,3,7,8-tetrachlorodibenzo-p-dioxine, TCDD) in dimethylsulfoxide (manufactured by Kanto Kagaku Co. Inc.) was used. After the transfection and the additional incubation for 24 hours, the medium was replaced with a fresh medium containing TCDD (at 0, 0.01, 1, or 100 nM), and the cell was cultured additionally for 30 hours. After 30 hours, the medium was removed from the 24-well plate, and the cell was washed with phosphate buffer twice. 100 μl of a protein extraction solution (manufactured by TOYO B-NET) was added to each well, and the cell suspension was stirred gently at room temperature for 15 minutes and then frozen at −80° C. The frozen solution was thawed at room temperature, and the resulting solution was recovered in a tube and diluted ten times with a protein extraction reagent containing 1 mg/ml bovine serum albumin. Luciferase and β-galactosidase activities in the diluted solution were measured, and the expression amount of the reporter gene was calculated as a relative luminescence intensity per 1 ng of β-galactosidase per second (RLU/sec/ng β-galactosidase).

SMILES: Clc1cc2c(cc1Cl)Oc1cc(Cl)c(Cl)cc1O2 [TCDD, 2,3,7,8-tetrachlorodibenzo-p-dioxine]
- expression amount of the reporter gene (increase versus unexposed) (0.01 nM TCDD): approximately 1.2 times
- expression amount of the reporter gene (increase versus unexposed) (1 nM TCDD): approximately 1.6 times
- expression amount of the reporter gene (increase versus unexposed) (100 nM TCDD): approximately 1.8 times
- expression amount of the reporter gene, dose dependence (0.01 to 100 nM TCDD): increased dose-dependently
